Test results taken from the NIST ThermoML archive (doi:10.1016/j.fluid.2009.11.030).

Assay: excess molar enthalpy (molar enthalpy of mixing); xn = mol fraction of the nth substance listed
Conditions: 101.3 kPa, Liquid, Isothermal microcalorimeter

CCOC(=O)CC(=O)OCC [diethyl 1,3-propanedioate] + CC(C)CO
excess molar enthalpy [kJ/mol]
Conditions | 288.15 K | 298.15 K | 313.15 K | 328.15 K | 338.15 K | 348.15 K
x1 = 0.0502 | 0.611 | 0.611 | 0.69 | 0.704 | 0.694 | 0.666
x1 = 0.0983 | 1.05 | 1.11 | 1.22 | 1.26 | 1.25 | 1.24
x1 = 0.1494 | 1.397 | 1.499 | 1.657 | 1.674 | 1.701 | 1.696
x1 = 0.2006 | 1.681 | 1.773 | 2.002 | 2.086 | 2.089 | 2.07
x1 = 0.2484 | 1.89 | 2.053 | 2.271 | 2.314 | 2.338 | 2.334
x1 = 0.2989 | 2.06 | 2.247 | 2.46 | 2.565 | 2.55 | 2.561
x1 = 0.3486 | 2.183 | 2.358 | 2.605 | 2.723 | 2.71 | 2.701
x1 = 0.3972 | 2.265 | 2.463 | 2.709 | 2.77 | 2.798 | 2.782
x1 = 0.4484 | 2.314 | 2.504 | 2.737 | 2.825 | 2.82 | 2.812
x1 = 0.4981 | 2.342 | 2.542 | 2.725 | 2.811 | 2.803 | 2.784
x1 = 0.5504 | 2.316 | 2.49 | 2.664 | 2.739 | 2.735 | 2.699
x1 = 0.6006 | 2.23 | 2.401 | 2.57 | 2.604 | 2.585 | 2.582
x1 = 0.6485 | 2.135 | 2.29 | 2.427 | 2.453 | 2.439 | 2.415
x1 = 0.6985 | 1.992 | 2.104 | 2.251 | 2.24 | 2.201 | 2.206
x1 = 0.7508 | 1.767 | 1.907 | 1.998 | 1.971 | 1.927 | 1.934
x1 = 0.8 | 1.531 | 1.634 | 1.701 | 1.662 | 1.624 | 1.609
x1 = 0.8514 | 1.23 | 1.3 | 1.358 | 1.31 | 1.27 | 1.24
x1 = 0.899 | 0.837 | 0.912 | 0.987 | 0.903 | 0.938 | 0.882
x1 = 0.9485 | 0.481 | 0.466 | 0.555 | 0.496 | 0.519 | 0.485

CCOC(=O)CC(=O)OCC [diethyl 1,3-propanedioate] + CCCCCCC
excess molar enthalpy [kJ/mol]
Conditions | 288.15 K | 298.15 K | 313.15 K | 328.15 K | 338.15 K | 348.15 K
x1 = 0.0503 | – | – | – | 0.375 | 0.367 | 0.378
x1 = 0.0581 | 0.438 | 0.419 | 0.431 | – | – | –
x1 = 0.1008 | – | 0.716 | 0.717 | 0.747 | 0.727 | 0.726
x1 = 0.1086 | 0.75 | – | – | – | – | –
x1 = 0.1476 | 0.943 | 0.97 | 0.997 | 1.018 | 1.03 | 1.014
x1 = 0.1984 | 1.151 | 1.222 | 1.28 | 1.311 | 1.315 | 1.286
x1 = 0.2495 | 1.31 | 1.456 | 1.514 | 1.568 | 1.548 | 1.526
x1 = 0.3007 | 1.48 | 1.618 | 1.728 | 1.766 | 1.792 | 1.726
x1 = 0.3481 | 1.531 | 1.733 | 1.856 | 1.919 | 1.895 | 1.89
x1 = 0.3997 | 1.584 | 1.786 | 1.934 | 2.02 | 2.026 | 1.984
x1 = 0.4474 | 1.594 | 1.815 | 1.962 | 2.043 | 2.068 | 2.04
x1 = 0.4993 | 1.601 | 1.819 | 1.975 | 2.049 | 2.08 | 2.055
x1 = 0.5474 | 1.596 | 1.81 | 1.948 | 2.024 | 2.054 | 2.013
x1 = 0.5997 | 1.571 | 1.758 | 1.889 | 1.954 | 2 | 1.934
x1 = 0.6481 | 1.517 | 1.696 | 1.812 | 1.854 | 1.884 | 1.84
x1 = 0.7008 | 1.45 | 1.565 | 1.67 | 1.727 | 1.736 | 1.673
x1 = 0.7495 | 1.352 | 1.442 | 1.496 | 1.545 | 1.539 | 1.51
x1 = 0.7985 | 1.2 | 1.256 | 1.26 | 1.348 | 1.331 | 1.299
x1 = 0.8476 | 0.99 | 1.022 | 1.029 | 1.06 | 1.07 | 1.03
x1 = 0.9009 | 0.699 | 0.697 | 0.691 | 0.752 | 0.743 | 0.711
x1 = 0.9504 | 0.371 | 0.373 | 0.371 | 0.434 | 0.393 | 0.366
